# According to article PMC4417197, “Engineering Saccharomyces pastorianus for the co-utilisation of xylose and cellulose from biomass” (Microbial Cell Factories, 2015):
# Columns and labels:
# [1] = biological target: T1, XR (xylose reductase, xyl1) (Trichoderma reesei, UniProt Q876L8); test: NADPH oxidation at […] nm in cell-free extract of expressing yeast; format: biochemical; conditions: 50 mM xylose, 0.34 mM NADPH, 25 mM potassium phosphate pH 7.0, 30 C
# T1 construct: cell-free extract
# T1 sequence (Q876L8 1-324): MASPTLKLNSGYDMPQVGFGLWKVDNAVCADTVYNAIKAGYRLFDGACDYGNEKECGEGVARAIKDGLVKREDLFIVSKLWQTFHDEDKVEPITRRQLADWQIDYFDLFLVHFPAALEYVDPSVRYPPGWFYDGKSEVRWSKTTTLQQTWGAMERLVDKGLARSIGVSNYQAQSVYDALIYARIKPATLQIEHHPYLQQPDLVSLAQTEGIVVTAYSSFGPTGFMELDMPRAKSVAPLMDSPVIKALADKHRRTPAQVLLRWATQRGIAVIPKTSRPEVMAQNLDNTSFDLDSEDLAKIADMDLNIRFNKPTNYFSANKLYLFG
# [2] = biological target: T2, XDH (xylitol dehydrogenase, xdh1) (Trichoderma reesei, UniProt Q876R2); test: NAD+ reduction at […] nm in cell-free extract of expressing yeast; format: biochemical; conditions: 0.15 M xylitol, 0.4 mM NAD+, 25 mM potassium phosphate pH 7.0
# T2 construct: cell-free extract
# T2 sequence (Q876R2 1-363): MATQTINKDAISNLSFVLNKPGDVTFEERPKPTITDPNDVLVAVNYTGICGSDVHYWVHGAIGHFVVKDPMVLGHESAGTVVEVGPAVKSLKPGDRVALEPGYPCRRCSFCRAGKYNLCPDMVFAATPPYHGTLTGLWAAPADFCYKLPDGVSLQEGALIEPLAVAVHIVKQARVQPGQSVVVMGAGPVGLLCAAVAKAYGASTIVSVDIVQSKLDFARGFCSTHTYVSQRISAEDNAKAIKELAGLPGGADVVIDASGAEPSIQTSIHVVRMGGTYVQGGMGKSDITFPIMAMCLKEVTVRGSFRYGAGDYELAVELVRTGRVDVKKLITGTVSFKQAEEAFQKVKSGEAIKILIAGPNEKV
SMILES,NADPH oxidation at 340 nm in cell-free extract of expressing yeast [1],NAD+ reduction at 340 nm in cell-free extract of expressing yeast [2]
NC(=O)C1=CN([C@@H]2O[C@H](COP(=O)(O)OP(=O)(O)OC[C@H]3O[C@@H](n4cnc5c(N)ncnc54)[C@H](OP(=O)(O)O)[C@@H]3O)[C@@H](O)[C@H]2O)C=CC1 [NADPH],measuring the oxidation of the reduced form of nicotinamide adenine dinucleotide phosphate (NADPH),–
NC(=O)c1ccc[n+]([C@@H]2O[C@H](COP(=O)(O)OP(=O)(O)OC[C@H]3O[C@@H](n4cnc5c(N)ncnc54)[C@H](O)[C@@H]3O)[C@@H](O)[C@H]2O)c1 [NAD^+],–,measuring the reduction of nicotinamide adenine dinucleotide (NAD^+) to NADH
